Reference: patent publication US7211572B2 (Japan Tobacco Inc., priority 2003, dated 2007)
Counter-ions that a name gives are not always drawn.

Each compound was assayed against T1, HIV integrase (Human immunodeficiency virus type 1 group M subtype B, UniProt P12497, F1332H) (assay: Determination of enzyme (HIV integrase) inhibitory activity). Conditions: recombinant HIV integrase (F185H), strand transfer ELISA, absorbance at 450 nm.
T1 construct: HIV integrase full length gene; made in house; host or cells: Escherichia coli BL21(DE3), plasmid pET21a-INH
Assay type: biochemical
Source text: The following explains evaluation methods of the HIV integrase inhibitory activity of the compound of the present invention.
(i) Construction of Recombinant Integrase Gene Expression System
The 185th phenylalanine of HIV integrase full length gene (J. Virol., 67, 425–437 (1993)) was substituted by histidine and inserted into the restriction enzyme NdeI and XhoI sites of plasmid pET21a(+) (Novagen), whereby an integrase expression vector pET21a-INH was constructed.
(ii) Production and Purification of Integrase Protein
Escherichia coli recombinant BL21(DE3) transformed with plasmid pET21a-INH obtained in (i) was shake cultured at 37° C. in a liquid medium containing ampicillin. When the culture reached the logarithmic growth phase, isopropyl-β-D-thiogalactopyranoside was added to promote expression of integrase gene. The culture was continued for 3 hr to promote accumulation of the integrase protein. The recombinant E. coli was collected in pellets by centrifugal separation and preserved at −80° C.
The E. coli was suspended in Lysis buffer (20 mM HEPES (pH 7.5), 5 mM DTT, 10 mM CHAPS, 10% glycerol) containing 1M sodium chloride and subjected to repeat pressurization and depressurization for rupture, and centrifugal separation at 4° C., 40,000×g, 60 min to recover a water-soluble fraction (supernatant). This was diluted 10-fold with Lysis buffer free of sodium chloride, mixed with SP-Sepharose (Pharmacia Corporation) and stirred at 4° C. for 30 min to allow adsorption of integrase protein to the resin. The resin was washed with Lysis buffer containing 100 mM sodium chloride and the integrase protein was eluted with Lysis buffer containing 1M sodium chloride.
The eluted integrase protein solution was applied to a Superdex 75 (Pharmacia Corporation) column for gel filtration. The protein was eluted with Lysis buffer containing 1M sodium chloride.
The obtained fractions of the integrase protein were collected and preserved at −80° C.
(iii) Preparation of DNA Solution
The following DNA synthesized by Greiner was dissolved in TE buffer (10 mM Tris-hydrochloric acid (pH 8.0), 1 mM EDTA) and mixed with donor DNA, target DNA, and each complementary strand (+ and − strands) to 1 μM. The mixture was heated at 95° C. for 5 min, 80° C. for 10 min, 70° C. for 10 min, 60° C. for 10 min, 50° C. for 10 min and 40° C. for 10 min and preserved at 25° C. to give a double stranded DNA, which was used for the test.
Donor DNA (− strand having biotin attached to the 5′ terminal)
(iv) Determination of Enzyme (HIV Integrase) Inhibitory Activity
The donor DNA was diluted with TE buffer to 10 nM, of which 50 μl was added to each well of streptavidin-coated microtiter plate (Roche) and allowed to adsorb at 37° C. for 60 min. The DNA was washed with phosphate buffer (Dulbecco PBS, Sanko Junyaku Co., Ltd.) containing 0.1% Tween 20 and phosphate buffer. Then, a reaction mixture (70 μl) having the following composition, a test substance (10 μl) diluted with the reaction mixture and 100 μg/ml integrase protein (10 μl) were added to each well and reacted at 37° C. for 60 min.
Composition of the reaction mixture: 30 mM MOPS (3-morpholinopropanesulfonic acid), 5 mM magnesium chloride, 3 mM DTT (dithiothreitol), 0.1 mg/ml BSA (bovine serum albumin), 5% glycerol, 10% DMSO (dimethyl sulfoxide), 0.01% Tween 20.
Then, 50 nM target DNA (10 μl) was added, reacted at 37° C. for 10 min and washed with phosphate buffer containing 0.1% Tween 20 to stop the reaction.
Then, 100 mU/ml peroxidase labeled anti-digoxigenin antibody solution (Roche, 100 μl) was added, and the mixture was reacted at 30° C. for 60 min, followed by washing with phosphate buffer containing 0.1% Tween 20.
A peroxidase color solution (Bio Rad, 100 μl) was added and allowed to react at room temperature for 4 min. The color reaction was stopped by adding 1N sulfuric acid (100 μl). The absorbance at 450 nm was measured. […]

First: CCN(CC)C(=O)c1cc(=O)c(O)c2n1CCN(Cc1ccc(Cl)c(Cl)c1)C2=O [Example 61, N,N-diethyl-2-(3,4-dichlorobenzyl)-9-hydroxy-1,8-dioxo-1,3,4,8-tetrahydro-2H-pyrido[1,2-a]pyrazine-6-carboxamide]
Second: CCN(C)C(=O)c1cc(=O)c(O)c2n1CCN(Cc1ccc(Cl)c(Cl)c1)C2=O [Example 63, N-ethyl-N-methyl-2-(3,4-dichlorobenzyl)-9-hydroxy-1,8-dioxo-1,3,4,8-tetrahydro-2H-pyrido[1,2-a]pyrazine-6-carboxamide]
The IC50 of the first is higher: 10 to 100 nM for the first, < 10 nM for the second. The second is the more potent here.

`CC(C)N(C)C(=O)c1cc(=O)c(O)c2n1CCN(Cc1ccc(Cl)c(Cl)c1)C2=O` [Example 62, N-isopropyl-N-methyl-2-(3,4-dichlorobenzyl)-9-hydroxy-1,8-dioxo-1,3,4,8-tetrahydro-2H-pyrido[1,2-a]pyrazine-6-carboxamide] and `CC(C)(C)C(O)c1cc(=O)c(O)c2n1CCN(Cc1ccc(Cl)c(Cl)c1)C2=O` (stereo not drawn) [Example 68, 2-(3,4-dichlorobenzyl)-9-hydroxy-6-(1-hydroxy-2,2-dimethylpropyl)-3,4-dihydro-2H-pyrido[1,2-a]pyrazine-1,8-dione] fall in the same range of IC50: 10 to 100 nM for the first, 10 to 100 nM for the second.

`O=C1c2c(O)c(=O)ccn2CCN1Cc1ccc(F)c(Cl)c1` [Example 64, 2-(3-chloro-4-fluorobenzyl)-9-hydroxy-3,4-dihydro-2H-pyrido[1,2-a]pyrazine-1,8-dione] and `COc1ccc(CN2CCn3ccc(=O)c(O)c3C2=O)cc1Cl` [Example 73, 2-(3-chloro-4-methoxybenzyl)-9-hydroxy-3,4-dihydro-2H-pyrido[1,2-a]pyrazine-1,8-dione] fall in the same range of IC50: 10 to 100 nM for the first, 10 to 100 nM for the second.

First: O=C1c2c(O)c(=O)ccn2CCN1Cc1ccccc1Cl [Example 65, 2-(2-chlorobenzyl)-9-hydroxy-3,4-dihydro-2H-pyrido[1,2-a]pyrazine-1,8-dione]
Second: O=C1c2c(O)c(=O)ccn2CCN1Cc1cc(Cl)cc(Cl)c1 [Example 66, 2-(3,5-dichlorobenzyl)-9-hydroxy-3,4-dihydro-2H-pyrido[1,2-a]pyrazine-1,8-dione]
The IC50 of the first is higher: 100 to 1000 nM for the first, 10 to 100 nM for the second. The second is the more potent here.

`CC(C)(C)c1cc(=O)c(O)c2n1CCN(Cc1ccc(Cl)c(Cl)c1)C2=O` [Example 67, 6-tert-butyl-2-(3,4-dichlorobenzyl)-9-hydroxy-3,4-dihydro-2H-pyrido[1,2-a]pyrazine-1,8-dione] and `N#CCc1cc(=O)c(O)c2n1CCN(Cc1ccc(Cl)c(Cl)c1)C2=O` [Example 75, [2-(3,4-dichlorobenzyl)-9-hydroxy-1,8-dioxo-1,3,4,8-tetrahydro-2H-pyrido[1,2-a]pyrazin-6-yl]acetonitrile] fall in the same range of IC50: 10 to 100 nM for the first, 10 to 100 nM for the second.

`O=c1ccn2ccn(CCCc3ccc(Cl)cc3)c(=O)c2c1O` [Example 70, 2-[3-(4-chlorophenyl)propyl]-9-hydroxy-2H-pyrido[1,2-a]pyrazine-1,8-dione] and `O=c1ccn2ccn(CCCc3cccc(Cl)c3)c(=O)c2c1O` [Example 76, 2-[3-(3-chlorophenyl)propyl]-9-hydroxy-2H-pyrido[1,2-a]pyrazine-1,8-dione] fall in the same range of IC50: 10 to 100 nM for the first, 10 to 100 nM for the second.

`O=c1ccn2ccn(CCCc3ccccc3Cl)c(=O)c2c1O` [Example 71, 2-[3-(2-chlorophenyl)propyl]-9-hydroxy-2H-pyrido[1,2-a]pyrazine-1,8-dione] and `O=c1ccn2ccn(CCCc3cccc(Cl)c3Cl)c(=O)c2c1O` [Example 91, 2-[3-(2,3-dichlorophenyl)propyl]-9-hydroxy-2H-pyrido[1,2-a]pyrazine-1,8-dione hydrochloride] fall in the same range of IC50: 10 to 100 nM for the first, 10 to 100 nM for the second.

First: Cc1cn(Cc2ccc(Cl)c(Cl)c2)c(=O)c2c(O)c(=O)ccn12 [Example 72, 2-(3,4-dichlorobenzyl)-9-hydroxy-4-methyl-2H-pyrido[1,2-a]pyrazine-1,8-dione hydrochloride]
Second: CCc1cn(Cc2ccc(Cl)c(Cl)c2)c(=O)c2c(O)c(=O)ccn12 [Example 85, 2-(3,4-dichlorobenzyl)-4-ethyl-9-hydroxy-2H-pyrido[1,2-a]pyrazine-1,8-dione]
The IC50 of the first is lower: < 10 nM for the first, 10 to 100 nM for the second. The first is the more potent here.

`CC(C)c1cn(Cc2ccc(Cl)c(Cl)c2)c(=O)c2c(O)c(=O)ccn12` [Example 78, 2-(3,4-dichlorobenzyl)-9-hydroxy-4-isopropyl-2H-pyrido[1,2-a]pyrazine-1,8-dione] and `CC(C)c1cn(Cc2ccc(F)c(Cl)c2)c(=O)c2c(O)c(=O)ccn12` [Example 92, 2-(3-chloro-4-fluorobenzyl)-9-hydroxy-4-isopropyl-2H-pyrido[1,2-a]pyrazine-1,8-dione hydrochloride] cannot be ordered by IC50: < 10 nM for the first, < 10 nM for the second.

`O=c1ccn2ccn(CCCc3ccc(Cl)c(Cl)c3)c(=O)c2c1O` [Example 79, 2-[3-(3,4-dichlorophenyl)propyl]-9-hydroxy-2H-pyrido[1,2-a]pyrazine-1,8-dione] and `O=c1ccn2ccn(CCCc3cc(Cl)cc(Cl)c3)c(=O)c2c1O` [Example 80, 2-[3-(3,5-dichlorophenyl)propyl]-9-hydroxy-2H-pyrido[1,2-a]pyrazine-1,8-dione] fall in the same range of IC50: 10 to 100 nM for the first, 10 to 100 nM for the second.

Compared with `O=C(Cc1cc(=O)c(O)c2n1CCN(Cc1ccc(Cl)c(Cl)c1)C2=O)OCc1ccccc1` [Example 81], `O=C(OCc1ccccc1)C(Cc1ccccc1)c1cc(=O)c(O)c2n1CCN(Cc1ccc(Cl)c(Cl)c1)C2=O` (stereo not drawn) [Example 82, benzyl 2-[2-(3,4-dichlorobenzyl)-9-hydroxy-1,8-dioxo-1,3,4,8-tetrahydro-2H-pyrido[1,2-a]pyrazin-6-yl]-3-phenylpropionate] is higher in IC50: < 10 nM for the first, 10 to 100 nM for the second.

First: O=C1c2c(O)c(=O)cc(CCO)n2CCN1Cc1ccc(Cl)c(Cl)c1 [Example 83, 2-(3,4-dichlorobenzyl)-9-hydroxy-6-(2-hydroxyethyl)-3,4-dihydro-2H-pyrido[1,2-a]pyrazine-1,8-dione]
Second: O=c1ccn2c(CO)cn(Cc3ccc(Cl)c(Cl)c3)c(=O)c2c1O [Example 86, 2-(3,4-dichlorobenzyl)-9-hydroxy-4-hydroxymethyl-2H-pyrido[1,2-a]pyrazine-1,8-dione]
The IC50 of the first is higher: 10 to 100 nM for the first, < 10 nM for the second. The second is the more potent here.

`CCCc1cn(Cc2ccc(Cl)c(Cl)c2)c(=O)c2c(O)c(=O)ccn12` [Example 84, 2-(3,4-dichlorobenzyl)-9-hydroxy-4-propyl-2H-pyrido[1,2-a]pyrazine-1,8-dione] and `CC(C)Cc1cn(Cc2ccc(Cl)c(Cl)c2)c(=O)c2c(O)c(=O)ccn12` [Example 87, 2-(3,4-dichlorobenzyl)-9-hydroxy-4-isobutyl-2H-pyrido[1,2-a]pyrazine-1,8-dione] cannot be ordered by IC50: < 10 nM for the first, < 10 nM for the second.

First: O=c1ccn2ccn(Cc3cccc(Cl)c3)c(=O)c2c1O [Example 88, 2-(3-chlorobenzyl)-9-hydroxy-2H-pyrido[1,2-a]pyrazine-1,8-dione hydrochloride]
Second: O=c1ccn2ccn(Cc3ccc(F)c(Cl)c3)c(=O)c2c1O [Example 90, 2-(3-chloro-4-fluorobenzyl)-9-hydroxy-2H-pyrido[1,2-a]pyrazine-1,8-dione hydrochloride]
The IC50 of the first is higher: 10 to 100 nM for the first, < 10 nM for the second.

`COC(=O)c1cn(Cc2ccc(Cl)c(Cl)c2)c(=O)c2c(O)c(=O)ccn12` [Example 89, methyl 2-(3,4-dichlorobenzyl)-9-hydroxy-1,8-dioxo-1,8-dihydro-2H-pyrido[1,2-a]pyrazine-4-carboxylate] and `COC(=O)c1cn(Cc2cccc(Cl)c2)c(=O)c2c(O)c(=O)ccn12` [Example 93, methyl 2-(3-chlorobenzyl)-9-hydroxy-1,8-dioxo-1,8-dihydro-2H-pyrido[1,2-a]pyrazine-4-carboxylate] fall in the same range of IC50: 10 to 100 nM for the first, 10 to 100 nM for the second.
